Here are results for eleven molecules from ChEMBL document CHEMBL4229526, “Quinoxaline derivatives as potential antitrypanosomal and antileishmanial agents” (Bioorg Med Chem, 2018).

Where only a bound is given, the exact number is not on record here.

Series [1] concerns Trypanosoma cruzi. In words: Antitrypanosomal activity against Trypanosoma cruzi Tulahuen amastigote forms infected in rat H9c2 cells assessed as reduction in amastigote number per cell after 72 hrs by DRAQ5 DNA dye based confocal microscopic analysis. Type of series: functional, organism-based. To be noted: H9c2, 72 h.
The subject of series [2] is Trypanosoma cruzi. In words: Antitrypanosomal activity against Trypanosoma cruzi Tulahuen trypomastigote forms infected in monkey LLC-MK2 cells after 24 hrs by CellTiter-Glo luminescent cell viability assay. Type of series: functional, organism-based. The following applies: LLC-MK2, 24 h. For orientation: Cellular ATP, detected with luciferase, serves as a proxy for viable cell number.

For series [3], the system named is Leishmania donovani. Nature of the series: Antileishmanial activity against Leishmania donovani MHOM/SD/62/1S-CL2D LdBOB amastigotes harboring eGFP infected in human THP1 cells assessed as reduction in number of amastigotes per cell after 96 hrs by DAPI staining based microscopic analysis. Type of series: functional, organism-based. The following applies: THP-1, 96 h.

Series [4] in a line: Cytotoxicity against human HepG2 cells after 48 hrs by CellTiter-Glo cell viability assay. Type of series: cell-based.
Series [5] deals with Leishmania donovani. In words: Antileishmanial activity against Leishmania donovani MHOM/SD/62/1S-CL2D LdBOB axenic amastigotes harboring eGFP after 72 hrs by resazurin dye based fluorescence assay. Type of series: functional, organism-based. On the technique in general: Alamar Blue is a resazurin reagent that responds to reducing activity.
In series [6] the test system is H9c2. In words: Cytotoxicity against rat H9c2 cells infected with Trypanosoma cruzi Tulahuen amastigote forms assessed as reduction in cell number after 72 hrs by DRAQ5 DNA dye based confocal microscopic analysis. To be noted: H9c2, 72 h.
Series [7] concerns Trypanosoma cruzi. Nature of the series: Antitrypanosomal activity against Trypanosoma cruzi Tulahuen amastigote forms infected in rat H9c2 cells assessed as reduction in infected cells after 72 hrs by DRAQ5 DNA dye based confocal microscopic analysis. Type of series: functional, organism-based. The following applies: H9c2, 72 h.
Series [8] deals with Trypanosoma brucei. In words: Antitrypanosomal activity against Trypanosoma brucei Lister 427 bloodstream forms after 48 hrs by resazurin dye based fluorescence assay. Type of series: functional, organism-based. The following applies: Lister 427, 48 h.
Series [9] has as its system Leishmania donovani. Nature of the series: Antileishmanial activity against Leishmania donovani MHOM/SD/62/1S-CL2D LdBOB amastigotes harboring eGFP infected in human THP1 cells assessed as reduction in infected cells after 96 hrs by DAPI staining based microscopic analysis. It is filed as functional, organism-based. The following applies: THP-1, 96 h.
Series [10] has as its system THP-1. Nature of the series: Cytotoxicity against human THP1 cells infected with Leishmania donovani MHOM/SD/62/1S-CL2D LdBOB amastigotes harboring eGFP assessed as reduction in cell number after 96 hrs by DAPI staining based microscopic analysis. The following applies: THP-1, 96 h.
The subject of series [11] is Leishmania donovani. In words: Potency index, ratio of amphotericin B IC50 to test compound IC50 for Leishmania donovani MHOM/SD/62/1S-CL2D LdBOB axenic amastigotes harboring eGFP. It is filed as functional.
In series [12] the test system is Leishmania donovani. In words: Potency index, ratio of miltefosine IC50 to test compound IC50 for Leishmania donovani MHOM/SD/62/1S-CL2D LdBOB axenic amastigotes harboring eGFP. Type of series: functional.

Take `COc1ccc(-c2nc3ccccc3nc2-c2ccc(OC)cc2)cc1`: the IC50 (commonly the point on the concentration scale where inhibition reaches its midpoint) is 10 µM in [1]; greater than 50 µM in [2]; greater than 50 µM in series [3]; greater than 50 µM in series [5]; greater than 50 µM in series [6]; 12.6 µM in series [7]. In addition, the results for the IC50 in series [8], in [9] and in series [10] were 31.6 µM, greater than 50 µM and greater than 50 µM, respectively. The cytotoxic concentration (CC50) (commonly the concentration at which the toxic effect on the cells reaches its halfway point) at 48 h in series [4] is greater than 100 µM.

Turning to `Clc1ccc2nc(-c3ccccc3)c(-c3ccccc3)nc2c1`, the IC50 was 15.8 µM in [1]; greater than 50 µM in [2]; greater than 50 µM in series [3]; greater than 50 µM in [5]; greater than 50 µM in series [6]; 19.9 µM in series [7]. The results for the IC50 in series [8], in series [9] and in series [10] were 25.1 µM, greater than 50 µM and greater than 50 µM, respectively. In series [4], this molecule showed a CC50 at 48 h greater than 100 µM.

`Clc1cc2nc(-c3ccccc3)c(-c3ccccc3)nc2cc1Cl`: the IC50 in series [1], in series [2], in series [3], in series [5], in [6] and in [7] was greater than 50 µM in each case. Further, the IC50 in series [8] is 39.8 µM; in series [9] it was greater than 50 µM; in series [10] it was greater than 50 µM. The same molecule had a CC50 at 48 h in series [4] greater than 100 µM.

As for `Cc1ccc(-c2nc3cc(Cl)c(Cl)cc3nc2-c2ccccc2)cc1`, the IC50 in [1] is 10 µM; in [2], greater than 50 µM; in series [3], greater than 50 µM; in series [5] it was greater than 50 µM; in [6] it was greater than 50 µM; in series [7] it was 15.8 µM. Also, the IC50 in series [8] is 19.9 µM; in [9] it was greater than 50 µM; in series [10] it was greater than 50 µM. In [4], this molecule gave a cytotoxic concentration (CC50) at 48 h greater than 100 µM.

As for `CS(=O)(=O)c1ccc(-c2nc3ccc(Br)cc3nc2-c2ccc(Cl)cc2)cc1`, the IC50 came out at 2 µM in [1]; 0.06 µM in series [2]; 2.51 µM in series [3]; 0.32 µM in series [5]; 1.26 µM in series [6]; 2 µM in [7]. Besides, the results for the 50% inhibitory concentration (IC50) in [8], in [9] and in [10] were 1.26 µM, 3.98 µM and 2 µM, respectively. For the same molecule, the “Ratio IC50” value in series [11] turned out to be 5.3; in [12], 26.3. Besides, in [4], the CC50 at 48 h was 2 µM.

As for `COc1ccc2nc(-c3ccc(Cl)cc3)c(-c3ccc(S(C)(=O)=O)cc3)nc2c1`, the IC50 in series [1] turned out to be 7.94 µM; in [2] it was 1.14 µM; in series [3], 12.6 µM; in series [5], 2.51 µM; in series [6], 5.01 µM; in series [7] it was 10 µM. For the same molecule, the IC50 in [8] was determined as 19.9 µM; in series [9] it was 10 µM; in series [10], 7.94 µM. In series [4], half-maximal cytotoxicity (CC50 at 48 h) was put at 5.01 µM.

In the case of `COc1ccc2nc(-c3ccc(Cl)cc3)c(-c3ccc([S+](C)[O-])cc3)nc2c1` (stereo unspecified), the IC50 in [1] was found to be 10 µM; in series [2] it was 1.04 µM; in series [3] it was 12.6 µM; in series [5] it was 3.16 µM; in series [6], 6.31 µM; in series [7], 12.6 µM. The IC50 in series [8] came to 3.98 µM; in [9] it was 12.6 µM; in series [10] it was 12.6 µM. Besides, the midpoint of cytotoxicity in [4], the CC50 at 48 h, lay at 7.94 µM.

Regarding `COc1ccc2nc(-c3ccc(S(C)(=O)=O)cc3)c(-c3ccc(Cl)cc3)nc2c1`, the IC50 in [1] amounted to 19.9 µM; in series [2] it was 4.21 µM; in [3], 19.9 µM; in series [5], 7.94 µM; in series [6], 10 µM; in series [7], 25.1 µM. The IC50 in series [8] is 10 µM; in [9] it was 19.9 µM; in series [10] it was 12.6 µM. In addition, in series [4], half-maximal cytotoxicity (CC50 at 48 h) was put at 25.1 µM.

In the case of `CS(=O)(=O)c1ccc(-c2nc3ccc(Cl)cc3nc2-c2ccc(Cl)cc2)cc1`, the IC50 in [1] was found to be 2 µM; in series [2], 0.09 µM; in [3] it was 5.01 µM; in [5] it was 0.32 µM; in [6], 1.58 µM; in series [7], 2 µM. Besides, the IC50 in series [8] turned out to be 2.51 µM; in [9] it was 5.01 µM; in series [10], 1.58 µM. The “Ratio IC50” value turned out to be 5.3 in series [11] and 26.3 in series [12]. Besides, half-maximal cytotoxicity in series [4] (CC50 at 48 h) was put at 2 µM.

For the molecule `C[S+]([O-])c1ccc(-c2nc3ccc(Cl)cc3nc2-c2ccc(Cl)cc2)cc1` (stereo unspecified), the IC50 in series [1] is 1.58 µM; in series [2], 0.1 µM; in series [3], 3.98 µM; in series [5] it was 0.32 µM; in series [6], 1.58 µM; in series [7], 2 µM. In addition, the IC50 in [8] came out at 0.63 µM; in [9], 3.16 µM; in series [10] it was 1.58 µM. In addition, the “Ratio IC50” value in [11] is listed as 5.3; in series [12] it was 26.3. Besides, in series [4], the CC50 at 48 h is 1.58 µM.

Turning to `CS(=O)(=O)c1ccc(-c2nc3ccccc3nc2-c2ccc(Cl)cc2)cc1`, the IC50 came to 10 µM in series [1]; 0.7 µM in series [2]; 10 µM in series [3]; 3.16 µM in series [5]; 5.01 µM in series [6]; 12.6 µM in [7]. The IC50 in series [8], in [9] and in series [10] was 10 µM each time. For the same molecule, in [4], the CC50 at 48 h amounted to 10 µM.
